As usually defined, the MIC is the lowest concentration that inhibits growth of the organism. Higher therefore signals a less susceptible organism.

The structures appear in SMILES notation. Converted amounts (≈) assume the structure as drawn.

The record followed here is ChEMBL document CHEMBL1139086, “Synthesis, characterization, antibacterial activity, and interaction with DNA of the vanadyl-enrofloxacin complex” (2007).

Common to all, as to type: functional
For one experiment, the system named is Escherichia coli. The experiment can be described thus: Antimicrobial activity against Escherichia coli.
The subject of the next experiment is Staphylococcus aureus. Nature of the experiment: Antimicrobial activity against Staphylococcus aureus.
The subject of another experiment is Pseudomonas aeruginosa. The experiment can be described thus: Antimicrobial activity against Pseudomonas aeruginosa.

Consider `CCN1CCN(c2cc3c(cc2F)c(=O)c(C(=O)O)cn3C2CC2)CC1` [ENROFLOXACIN], for which the MIC against Escherichia coli was found to be 1 µg/mL (≈ 2.78 µM); with Staphylococcus aureus, 8 µg/mL (≈ 22.3 µM); against Pseudomonas aeruginosa it was 1 µg/mL (≈ 2.78 µM).
